Experiments:
protein synthesis = experiment: Puromycin ELISA (protein synthesis); format: cell-based; settings: FIG. 10
Excerpt: Puromycin is an aminonucleoside antibiotic produced by the bacterium Streptomyces alboniger. It is a structural analogue of aminoacyl-transfer RNA and, as such, can be incorporated into elongating peptide chains via the formation of a peptide bond. However, whereas aminoacyl-tRNAs contain a hydrolyzable ester bond, puromycin hasn't it in the equivalent position. Thus, the binding of puromycin to a growing peptide chain prevents a new peptide bond from being formed with the next aminoacyl-tRNA. As a consequence, puromycin binding results in the termination of peptide elongation, and leads to the release of the truncated puromycin bound peptide from the ribosome. […] This later property makes puromycin a potential tool for the measurement of changes in protein synthesis rates.
1. Dispense […] Coating Buffer per well in the required number of wells in a 96 well ELISA plate. Dilute and mix the Protein extract (in the same buffer the sample is in) to […]. Immediately dispense 1 μl/well into plate.
2. Incubate the plate at 4° C. for 16-24 h.
3. Vigorously shake out contents. Wash 1× with 200 ul PBS.
4. Add 200 μl Blocking Solution (5% BSA in PBS). Incubate over the day 4-6 h at RT.
5. Dilute Puromycin antibody in Blocking solution and incubate overnight at 4° C.
8. Wash 2× with 200 ul PBS
9. […]
12. Add Stop solution and read the plate at 450 nm.

[1] = tested on: Human Dermal Fibroblasts (HDF); experiment: Cell proliferation assay (BrDu), HDF; format: cell-based; settings: HDF cells; 5, 0.5 or 0.05 μg/ml, 24 h; compared with untreated control; FIG. 1
Protocol: BrDu is incorporated into newly synthesised DNA strands of actively proliferating cells. Following partial denaturation of double stranded DNA, BrDu is detected immunochemically allowing the assessment of the population of cells which are synthesizing DNA.
Human Dermal Fibroblasts (HDF—Sigma 10605a) were seeded in a 96 well plate at 10,000 cells per well in DMEM containing 10% fetal calf serum (FCS), 1% Pen/strep, 1% L-glutamine and allowed to adhere for 24 h.
Following the initial 24 h incubation the cells were incubated with 5 μg/ml, 0.5 μg/ml or 0.05 μg/ml synthetic peptide for 24 h respectively.
After 18 h incubation with synthetic peptides 20 μl BrDu reagent was added to each well. At 24 h incubation the cells were fixed and the amount of […] was measured using the BrdU Cell Proliferation Assay, all steps were carried out according to the manufacturer's instructions.

WKDEAGKPLVK [SEQ ID NO. 1]
protein synthesis (protein synthesis): increase
cell proliferation [1]: increase

— patent US10729636B2, “Compositions comprising peptide [sequence]” (NURITAS LIMITED, priority 2016, dated 2020)
